Test results as given in EP4772177A1, “MUSCLE ATROPHY INHIBITOR” (National University Corporation Kobe University, priority 2023, dated 2025).

How the values were obtained:
[1] = system: muscle atrophy model mice (immobilized mice); assay: Effects of hydroxylated fatty acid on muscle atrophy model mice (hind limbs immobilized with plastic casts); type: in vivo, C57BL/6J mice; conditions: 1% in diet for 20 days (immobilization for the latter 10 days); for loss of soleus muscle (muscle weight per body weight): Fig. 2, n = 6; for loss of gastrocnemius muscle (gastrocnemius muscle weight per body weight): Fig. 3, n = 6; for loss of soleus muscle cross-sectional area: HE staining, 400 fibers pooled from 2 mice, Fig. 4
Source text: C57BL/6J mice (male, 10 weeks old) were fed a normal diet (CE-2, CLEA Japan, Inc.), a 1% linoleic acid-containing diet (LA), or a 1% 10-hydroxy-cis-12-octadecenoic acid-containing diet (HYA) (LA manufactured by Sigma-Aldrich and HYA manufactured by Noster Inc. were used) each for 10 days. Then, under general anesthesia, both hind limbs of the mice were immobilized with plastic casts to create immobilized mice. After 10 days of immobilization (still receiving the normal diet or each mixed diet), the mice were sacrificed and weighed. Both soleus muscles were then collected and weighed. The comparison results of muscle weight per body weight are shown in Fig. 2 (n = 6, *P < 0.05, **P < 0.01, 2-way ANOVA with Bonferroni's post hoc test). Furthermore, under the same conditions, both gastrocnemius muscles were collected and weighed. The comparison results of gastrocnemius muscle weight per body weight are shown in Fig. 3 (n = 6, *P < 0.05, **P < 0.01, 2-way ANOVA with Bonferroni's post hoc test).
(§1) In addition, the formalin-soaked soleus muscles were cut in the cross section at its largest diameter, and sections were prepared. After HE staining, the cross-sectional area of the muscle fibers was measured. The comparison results of soleus muscle cross-sectional area are shown in Fig. 4 (the area of 400 fibers pooled from 2 mice was measured and averaged for each condition, **P < 0.01, 2-way ANOVA with Bonferroni's post hoc test).

[2] = system: muscle atrophy model mice (high-fat diet administered mice); assay: Effects of hydroxylated fatty acid on muscle atrophy model mice (high-fat diet administration); type: in vivo, C57BL/6J mice; conditions: 1% added to high-fat diet for 14 days, compared to administration of a high-fat diet alone; for soleus muscle weight (per body weight): Fig. 7, n = 12; for gastrocnemius muscle weight (per body weight): Fig. 8, n = 12; for tibialis anterior muscle cross-sectional area: HE staining, 400 fibers pooled from 2 mice, Fig. 9(B)
Description: C57BL/6J mice (male, 10 weeks old) were fed a normal diet (CE-2, CLEA Japan, Inc.), a high-fat diet (HFD32, CLEA Japan, Inc.), a 1% HYA-added high-fat diet, or a 1% LA (linoleic acid)-added high-fat diet (HYA manufactured by Noster Inc., LA manufactured by Sigma-Aldrich were used) each for 14 days to create a muscle atrophy model mouse by high-fat diet administration, and the effects by the administration of hydroxylated fatty acid were evaluated.
C57BL/6J mice (male, 10 weeks old) were fed a normal diet (CE-2, CLEA Japan, Inc.), a high-fat diet (HFD32, CLEA Japan, Inc.), a 1% HYA-added high-fat diet, or a 1% LA (linoleic acid)-added high-fat diet each for 14 days. After feeding, the mice were sacrificed and weighed. Both soleus muscles were collected and weighed. The comparison results of soleus muscle weight per body weight are shown in Fig. 7 (n = 12, **P < 0.01, 2-way ANOVA with Bonferroni's post hoc test). Furthermore, under the same conditions, both gastrocnemius muscles were collected and weighed. The comparison results of gastrocnemius muscle weight per body weight are shown in Fig. 8 (n = 12, **P < 0.01, 2-way ANOVA with Bonferroni's post hoc test).
as §1, with “formalin-soaked tibialis anterior muscle was” for “formalin-soaked soleus muscles were”, “HE staining (Fig. 9(A)),” for “HE staining,”, “of tibialis anterior” for “of soleus”, “Fig. 9(B)” for “Fig. 4”

[3] = compared to administration of a normal diet
[4] = compared to administration of linoleic acid

Structure (SMILES)	loss of soleus muscle (muscle weight per body weight) [1, 3]	loss of gastrocnemius muscle (gastrocnemius muscle weight per body weight) [1, 3]	loss of soleus muscle cross-sectional area [1, 3]	loss of gastrocnemius muscle (gastrocnemius muscle weight per body weight) [1, 4]	loss of soleus muscle cross-sectional area [1, 4]	soleus muscle weight (per body weight) [2]	gastrocnemius muscle weight (per body weight) [2]	tibialis anterior muscle cross-sectional area [2]
CCCCC/C=C\CC(O)CCCCCCCCC(=O)O (stereo not drawn) [HYA, 10-hydroxy-cis-12-octadecenoic acid]	significantly inhibited	significantly inhibited	significantly inhibited	significantly inhibited	significantly inhibited	significantly increased	significantly increased	significantly increased
CCCCC/C=C\C/C=C\CCCCCCCC(=O)O [linoleic acid, reference compound]	did not significantly inhibit	did not significantly inhibit	did not significantly inhibit			a tendency toward an increase	a tendency toward an increase	a tendency toward an increase
